Values joined by “and” are separate entries in the source; they are usually repeats but may differ in a detail not shown here. Identical values can stand only once.
Tests used:
[1] = Metabolic stability in mouse liver S9 fraction; conditions: male, CD-1, mouse, s9
Experimental: (§1) Shimadzu HPLC system including vacuum degasser, gradient pumps, reverse phase HPLC column, column oven, and autosampler with an API 4000 QTRAP mass spectrometer (Applied Biosystems/MDS Sciex (AB Sciex) with Turbo V ion source and TurboIonspray interface were used. The reference compound midazolam, which is metabolized both by phase I and phase II enzymes, was used. The elimination constant (kel), half-life (t1/2), and intrinsic clearance (Clint) were determined[19] (Table S1).

[2] = Metabolic stability in human liver S9 fraction
Experimental: as §1
Supplementary Figure 1. […] Test compounds (1 μM, final DMSO concentration 1%) were incubated at 37 °C with shaking at 100 rpm. Four time points over 120 minutes have been analyzed. The reactions were stopped by adding 420 μL of acetonitrile-water mixture (90:10). Supernatants were analyzed by the HPLC system coupled with a tandem mass spectrometer. The percentage (in % of initial concertation) of the test compounds remaining after incubation in plasma and their half-lives (t1/2) were calculated. […] The stability of the compound was tested in human liver S9 fraction. Cofactors were used such as UDPGA (for glucuronidation), PAPS (for sulfation), and reduced glutathione (for conjugation of GSH). Compounds were tested in triplicate with or without NADPH. Propantheline and midazolam were used as unstable control compounds in the experiments. Data represent the means±S.D. from at least three independent samples.

HepaRG KO CAR cells = experiment: RT-qPCR mRNA expression in HepaRG KO CAR cells; type: cell-based, human; conditions: Phenobarbital 500 μM, CITCO 1 μM, MI 883 1 μM; ctrl = 1
Excerpt: (§2) HepaRG cells from Biopredic (Rennes, France) were cultivated and differentiated on the 12-well plates. […] Several batches of HepaRG KO CAR (CAR Knockout HepaRG™ Cells, MTOX1012-1VL, RRID:CVCL_B6AA) and PXR Knockout HepaRG™ Cells, MTOX1011-1VL, RRID:CVCL_B6AS) cells have been obtained from Sigma-Aldrich/Merck (Darmstadt, Germany) and cultivated according to the provider’s protocols. […] Experiments with HepaRG KO PXR and HepaRG KO CAR cells have been performed in duplicates at least in two independent experiments.
(§3) RT-qPCR was used to examine gene expression in 2D and 3D PHH, HepaRG cells, or in mouse liver or intestine (ileum) samples as we have described before[60]–[62].
(§4) All qRT-qPCR experiments including Trizol reagent (Life Technologies) total RNA isolation, reverse-transcription using a random hexaprimer, and the MMLV Reverse Transcriptase Kit (ThermoFisher Scientific) we have described before^19. qPCR was performed using TaqMan Fast Advanced Master Mix with TaqMan probes (ThermoFisher Scientific). […] The delta-delta method was used for gene expression quantification normalized to at least two reference genes. Three technical replicates were used for each reaction considering the MIQE guidelines. Data are presented as fold induction to vehicle-treated cells/animals.

[3] = tested on: LS174T cells (endogenous PXR); experiment: CYP3A4 mRNA RT-qPCR in LS174T cells
Excerpt: LS174T human colon adenocarcinoma cells (RRID:CVCL_1384) were used in induction experiments with the subsequent CYP3A4 mRNA RT-qPCR analysis as they express functional endogenous PXR.

[4] = tested on: PXR-responsive CYP3A4(pER6)-luc construct; experiment: CYP3A4(pER6)-luc luciferase reporter assay in HepG2 cells
murine Car = conditions: cited from earlier work
CAR-LBD = target: T1, CAR-LBD (Homo sapiens, UniProt Q14994); experiment: MARCoNI CAR-LBD coregulator interaction array; type: biochemical; conditions: 100 μM
T1 construct: HIS-tagged CAR-LBD (ThermoFisher Sciences, Cat. No PV4836); purchased ThermoFisher PV4836
Experimental: The reaction was performed in a fully automated microarray processing and fluorescent imaging platform (PamStation12) at 20 °C for 80 cycles (two cycles per minute). After removal of the unbound CAR-LBD receptor by washing each array with 25 µl Tris-buffered Saline (TBS) buffer, fluorescent images of the PamChip microarrays were obtained using the PamStation12, and then were analyzed for quantification of CAR binding using BioNavigator software (PamGene International B.V.). For data and statistical analysis, BioNavigator was used.
Modulation index (MI) is the log10-transformed relative binding value, which is calculated by the compound’s binding value, relative to the vehicle control (DMSO) binding value.

HepaRG cells = experiment: RT-qPCR mRNA expression in differentiated HepaRG cells
Excerpt: as §2, §3, §4

[5] = normal mice, ref 10 of the reply (Dempsey et al.)

T1 sequence (Q14994 109-348 isoform Q14994-2 limits assumed): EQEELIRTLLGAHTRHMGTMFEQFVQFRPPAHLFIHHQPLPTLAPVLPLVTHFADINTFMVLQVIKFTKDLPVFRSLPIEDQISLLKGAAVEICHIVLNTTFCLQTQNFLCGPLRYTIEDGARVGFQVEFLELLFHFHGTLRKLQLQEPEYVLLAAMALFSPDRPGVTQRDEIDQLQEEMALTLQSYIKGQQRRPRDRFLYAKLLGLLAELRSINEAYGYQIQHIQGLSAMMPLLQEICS

Compound: Cc1ncc2n1-c1ccc(Cl)cc1C(c1ccccc1F)=NC2 [Midazolam, midazolam]
- half-life [1]: 3.1 min
- microsomal CLint [1]: 113 µL/min/mg
- half-life at 2 µM ([2]; human, s9): 6.3 ± 0.3 min
- microsomal CLint at 2 µM ([2]; human, s9): 55 ± 2.5 µL/min/mg
- Stability in S9 fraction (human liver), % remaining ([2]; time 0 (min), 2 μM): 100
- Stability in S9 fraction (human liver), % remaining ([2]; time 20): 94
- Stability in S9 fraction (human liver), % remaining ([2]; time 40): 53
- Stability in S9 fraction (human liver), % remaining ([2]; time 60): 18
- Stability in S9 fraction (human liver), % remaining ([2]; time 120): 1

Compound: CCC1(c2ccccc2)C(=O)NC(=O)NC1=O [Phenobarbital]
- CYP2B6 mRNA, RT-qPCR, HepaRG KO CAR (Fig. 1f), replicates (HepaRG KO CAR cells): 2.7 and 1.95 and 2.4

Compound: CCOP(=O)(OCC)C(=Cc1cc(C(C)(C)C)c(O)c(C(C)(C)C)c1)P(=O)(OCC)OCC [SR12813]
- RT-qPCR in LS174T (Fig 1 l, CYP3A4 mRNA), replicates ([3]; single agent 1μM, ctrl = 1): 1.75 and 3.85 and 3.1
- pER6-luc luciferase gene reporter assay (Fig1 m), replicates ([4]; single agent 1μM, ctrl ~1): 6.4 and 6.3 and 4.7
- pER6-luc luciferase gene reporter assay (Fig1 m), replicates ([4]; single agent 10μM): 11.93 and 6.55 and 11

Compound: Clc1cnc(Oc2ccc(Oc3ncc(Cl)cc3Cl)cc2)c(Cl)c1 [TCPOBOP]
- suppression of atherosclerotic lesions in the aortic valves (murine Car; Ldlr –/– mice): 60%
- decrease of cholesterol content in the liver (murine Car; after 2 months): 25%
- decrease of cholesterol content in the whole body (murine Car; after 2 months): ~50%
- increase of fecal excretion of 3H-labeled bile acids (murine Car; mice): ~ 40%
- colon bsh activity compared to control animals (murine Car; [5]): 30%
- increase of colon unconjugated and total BA pools (not significant) (murine Car; [5]): about 1.4 fold

Compound: Clc1ccccc1C(c1ccccc1)(c1ccccc1)n1ccnc1 [clotrimazole, reference compound]
- CAR-coregulator interaction profile (CAR-LBD): releasing most of the coactivator proteins

Compound: CO[C@H]1/C=C/O[C@@]2(C)Oc3c(C)c(O)c4c(O)c(c(/C=N/N5CCN(C)CC5)c(O)c4c3C2=O)NC(=O)/C(C)=C\C=C\[C@H](C)[C@H](O)[C@@H](C)[C@@H](O)[C@@H](C)[C@H](OC(C)=O)[C@@H]1C [rifampicin, reference compound]
- PCSK9 mRNA in HepaRG cells (HepaRG cells; Supplementary Fig. 10b): Marginal effect
- SQLE mRNA in HepaRG cells (HepaRG cells; rifampicin (5 μM)): weakly but significantly upregulated

Compound: SPA70 [reference compound]
- basal expression of SQLE mRNA in HepaRG cells (HepaRG cells): downregulated
- rifampicin induction of SQLE mRNA in HepaRG cells (HepaRG cells; MI-883 at 1 μM, SPA70): abrogated
- CYP2B6 expression relative to control (replicates) (HepaRG cells; SPA70 1 μM): 0.7099 and 0.6385
- CYP2B6 expression relative to control (replicates) (HepaRG cells; SPA70 1 μM + CITCO (1 μM)): 0.8 and 0.8395 and 0.9953
- CYP2B6 expression relative to control (replicates) (HepaRG cells; SPA70 5 μM): 0.4419 and 0.6247 and 0.5722
- CYP2B6 expression relative to control (replicates) (HepaRG cells; SPA70 5 μM + Rif (5 μM)): 0.8063 and 0.705 and 0.7533
- CYP3A4 expression relative to control (replicates) (HepaRG cells; SPA70 5 μM + Rif (5 μM)): 1.181 and 0.9078 and 1.057
- CYP2B6 expression relative to control (replicates) (HepaRG cells; SPA70 10 μM): 0.4185 and 0.6476 and 0.5707 and 0.3103
- CYP2B6 expression relative to control (replicates) (HepaRG cells; SPA70 10 μM + CITCO (1 μM)): 0.9283 and 0.5126 and 0.8752
- CYP2B6 expression relative to control (replicates) (HepaRG cells; SPA70 10 μM + Rif (5 μM)): 0.4242 and 0.5514 and 0.5133
- CYP3A4 expression relative to control (replicates) (HepaRG cells; SPA70 10 μM + Rif (5 μM)): 0.8451 and 0.9487 and 0.8513 and 0.8231
- CYP2B6 expression relative to control (replicates) (HepaRG cells; SPA70 20 μM): 0.8031 and 0.3464
- CYP2B6 expression relative to control (replicates) (HepaRG cells; SPA70 20 μM + CITCO (1 μM)): 1.219 and 0.6292 and 0.9541
- CYP2B6 expression relative to control (replicates) (HepaRG cells; SPA70 20 μM + Rif (5 μM)): 0.5214 and 0.5645
- CYP3A4 expression relative to control (replicates) (HepaRG cells; SPA70 20 μM + Rif (5 μM)): 0.8451 and 0.7532
- rifampicin-induced and basal CYP3A4 and CYP2B6 mRNA expression in HepaRG cells (HepaRG cells; Supplementary Fig. 10): suppressed
- RT-qPCR in LS174T (Fig 1 l, CYP3A4 mRNA), replicates ([3]; Rif 1μM + test compound 10μM): 0.37 and 0.6 and 0.8
- RT-qPCR in LS174T (Fig 1 l, CYP3A4 mRNA), replicates ([3]; SR12813 1μM + test compound 10μM): 0.46 and 0.35 and 0.34
- RT-qPCR in LS174T (Fig 1 l, CYP3A4 mRNA), replicates ([3]; single agent 10μM): 0.29 and 0.5 and 0.49
- pER6-luc luciferase gene reporter assay (Fig1 m), replicates ([4]; Rif 1μM + SPA70 10μM): 1.57 and 1.64 and 1.5
- pER6-luc luciferase gene reporter assay (Fig1 m), replicates ([4]; SR12813 1μM + SPA70 10μM): 1.2 and 2 and 3.55
- pER6-luc luciferase gene reporter assay (Fig1 m), replicates ([4]; single agent 1μM, ctrl ~1): 1.15 and 1.67 and 1.39
- pER6-luc luciferase gene reporter assay (Fig1 m), replicates ([4]; single agent 10μM): 1 and 1.1 and 1.26

Compound: SPA-70
- CYP3A4 expression relative to control (replicates) (HepaRG cells; SPA-70 1 μM): 0.8854 and 0.7984
- SQLE expression relative to control (mean) (HepaRG cells; SPA-70 1 μM + Rif (5 μM)): 0.6659
- SQLE expression relative to control (mean) (HepaRG cells; SPA-70 1 μM, 48 h): 0.6886
- CYP3A4 expression relative to control (replicates) (HepaRG cells; SPA-70 5 μM): 0.7429 and 0.6513 and 0.7215
- SQLE expression relative to control (mean) (HepaRG cells; SPA-70 5 μM + Rif (5 μM)): 0.7312
- SQLE expression relative to control (mean) (HepaRG cells; SPA-70 5 μM, 24 h): 0.9488
- SQLE expression relative to control (mean) (HepaRG cells; SPA-70 5 μM, 48 h): 0.6267
- CYP3A4 expression relative to control (replicates) (HepaRG cells; SPA-70 10 μM): 0.443 and 0.6539 and 0.5479 and 0.7562
- SQLE expression relative to control (mean) (HepaRG cells; SPA-70 10 μM + Rif (5 μM)): 0.7448
- SQLE expression relative to control (mean) (HepaRG cells; SPA-70 10 μM, 24 h): 0.7277
- SQLE expression relative to control (mean) (HepaRG cells; SPA-70 10 μM, 48 h): 0.6494
- CYP3A4 expression relative to control (replicates) (HepaRG cells; SPA-70 20 μM): 0.5871 and 0.5215
- SQLE expression relative to control (mean) (HepaRG cells; SPA-70 20 μM + Rif (5 μM)): 0.8792
- SQLE expression relative to control (mean) (HepaRG cells; SPA-70 20 μM, 48 h): 0.7487

From paper PMC11802874, “The hypolipidemic effect of MI-883, the combined CAR agonist/ PXR antagonist, in diet-induced hypercholesterolemia model” (Nature Communications, 2025)
